The results in this text go back to patent publication US20180298405A1, “METHODS AND COMPOSITIONS TO INCREASE HUMAN SOMATIC CELL NUCLEAR TRANSFER (SCNT) EFFICIENCY BY REMOVING HISTONE H3-LYSINE TRIMETHYLATION, AND DERIVATION OF HUMAN NT-ESC” (CHILDREN'S MEDICAL CENTER CORPORATION, priority 2015, published 2018).

One data set deals with mouse SCNT embryos. In words: Preimplantation development of KDM4A-assisted mouse SCNT embryos. Format: cell-based. The settings on record: cumulus donor cells, mRNA injected at 5-6 hpa; for % blast per 2-cell ± SD: blastocyst stage. Here is the method: B6D2F1/J (BDF1) mice were produced by crossing C57BL/6J females with DBA/2J males, and were used for the collection of both oocyte and somatic nuclear donor for SCNT. All animal experiments were approved by the Institutional Animal Care and Use Committee of Harvard Medical School.
In vitro transcription was performed as described previously (Matoba et al., 2014). Briefly, full length human KDM4A/JHDM3A cDNA was cloned into a pcDNA3.1 plasmid containing poly(A)83 at the 3′ end of cloning site. The catalytic defective mutant form of KDM4A (H188A) was generated using PrimeSTAR mutagenesis kit (TAKARA # R045A). mRNA was synthesized using the mMESSAGE mMACHINE T7 Ultra Kit (Life technologies # AM1345). The synthesized mRNA was dissolved in nuclease-free water. The concentration of mRNA was measured by NanoDrop ND-1000 spectrophotometer (NanoDrop Technologies). Aliquots of mRNA were stored at −80° C. until use.
Mouse somatic cell nuclear transfer was carried out as described previously (Matoba et al., 2014). Briefly, both recipient MII oocytes and donor cumulus cells were collected from adult BDF1 female mice through superovulation by injecting 7.5 IU of pregnant mare serum gonadotropin (PMSG; Millipore #367222) and 7.5 IU of human chorionic gonadotropin (hCG; Millipore #230734). Fifteen to seventeen hours after the hCG injection, cumulus-oocyte complexes (COCs) were collected from the oviducts and treated briefly with Hepes-buffered potassium simplex-optimized medium (KSOM) containing 300 U/ml bovine testicular hyaluronidase (Calbiochem #385931) to obtain dissociated MII oocytes and cumulus cells. Isolated MII oocytes were enucleated in Hepes-buffered KSOM medium containing 7.5 jig/ml of cytochalasin B (Calbiochem #250233) by using Piezo-driven micromanipulator (Primetech # PMM-150FU). The nuclei of donor cumulus cells were injected into the enucleated oocytes. After 1 h incubation in KSOM, reconstructed SCNT oocytes were activated by incubating in Ca-free KSOM containing 2.5 mM SrCl2 and 5 jig/ml cytochalasin B for 1 h, and further cultured in KSOM with cytochalasin B for 4 h. Activated SCNT embryos were washed 5 hrs after the onset of SrCl2 treatment (hours post activation, hpa) and cultured in KSOM in a humidified atmosphere with 5% CO2 at 37.8° C. The SCNT embryos were injected with ˜10 pl of water (control), 1500 ng/μ1 wild-type or mutant (H188A) human KDM4A mRNA at 5-6 hpa by using a Piezo-driven micromanipulator. Preimplantation developmental rates were analyzed by Student's T-test.

In another data set the test system is human SCNT blastocysts. In words: Derivation of human NTK-ESCs from KDM4A-assisted SCNT blastocysts. In kind it is cell-based. Here is the method:
All expanded blastocysts were treated with acid Tyrode solution to remove the zona pellucida, then the entire blastocysts (without removing trophectoderm) were plated onto mitotically-inactivated mouse fibroblasts (MEFs, Global Stem Inc.) in knockout-DMEM supplemented with Knockout Serum Replacement (10% SR, Invitrogen), FBS (10% Hyclone), bFGF (30 ng/ml), human LIF (2000 units/ml, Sigma-Aldrich), and ROCK inhibitor (1 uM, Sigma-Aldrich). The derivation medium was not changed for the next 3 days, then 1/2 medium was replaced with fresh medium without the ROCK inhibitor daily as previously described (Chung et al., 2008). After 3 passages, the amount of FBS was reduced to 2%, replacing it with SR. After 5 passages, the ES cells were cultured in DMEM/F12 supplemented with FGF (8 ng/ml, Invitrogen), SR (18%, Invitrogen), and FBS (2% Hyclone). After the 10 passages, the ES cells were maintained in DMEM/F12 supplemented with FGF (8 ng/ml) and 20% SR.

Where “and” joins values, the source holds several entries; their conditions need not be identical. Equal values may be shown once.

In the case of “KDM4A mRNA: in vitro transcribed mRNA of full length human KDM4A/JHDM3A cDNA, an H3K9me3 demethylase (SEQ ID NO: 1)”, in the data set with mouse SCNT embryos, the “% 4-cell per 2-cell ± SD” value turned out to be 43.3 ± 7.6%; the “% cleaved per 1-cell ± SD” value was 93.7 ± 2.7%; the “% morula per 2-cell ± SD” value came to 35.5 ± 13.5%; the “% blast per 2-cell ± SD” value is 90.3% and 90%. Besides, the “% blast per 2-cell ± SD” value in the data set on mouse SCNT embryos (listed as KDM4A) is 23.7 ± 11.6%. Also, in the data set with mouse SCNT embryos (listed as KDM4A WT), the “% blast per 2-cell ± SD” value is 90.3 ± 0.3 %, the “% 4-cell per 2-cell ± SD” value is recorded as 96.8 ± 2.7 %, the “% cleaved per 1-cell ± SD” value came to 97.0 ± 5.2% and the “% morula per 2-cell ± SD” value worked out at 92.5 ± 3.6 %. Also, the “stable NT-ESC lines derived” value in the data set on human SCNT blastocysts (after five passages, from eight expanded blastocysts) is given as “four stable NT-ESC lines”. Further, the “expanded blastocysts attached to MEF feeder cells and initiated outgrowth” value with human SCNT blastocysts (of eight expanded blastocysts) is “Seven out of the eight”.
